Measurements: the supplement of paper PMC8671470

How the values were obtained:
Conditions in all cases: 72 h
[1] = test system: myeloid leukemia patient primary cells Pat.10; test: area under dose-response curve (viability, 1 nM-10 uM) (fraction (0-1)); higher = more sensitive
Method: (§1)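 AUC (0–1, higher = more sensitive) of the 5-point dose–response (1 nM–10 µM, 72 h, CellTiter-Glo) in primary AML/CML patient mononuclear cells. 0.030103 is the floor for inactive compounds.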

[2] = test system: myeloid leukemia patient primary cells Pat.11; test: as above
Method: as §1

[3] = test system: myeloid leukemia patient primary cells Pat.12; test: as above
Method: as §1

[4] = test system: myeloid leukemia patient primary cells Pat.13; test: as above
Method: as §1

[5] = test system: myeloid leukemia patient primary cells Pat.14; test: as above
Method: as §1

[6] = test system: myeloid leukemia patient primary cells Pat.15; test: as above
Method: as §1

[7] = test system: myeloid leukemia patient primary cells Pat.1; test: as above
Method: as §1

[8] = test system: myeloid leukemia patient primary cells Pat.2; test: as above
Method: as §1

[9] = test system: myeloid leukemia patient primary cells Pat.3; test: as above
Method: as §1

[10] = test system: myeloid leukemia patient primary cells Pat.4; test: as above
Method: as §1

[11] = test system: myeloid leukemia patient primary cells Pat.6; test: as above
Method: as §1

[12] = test system: myeloid leukemia patient primary cells Pat.7; test: as above
Method: as §1

[13] = test system: myeloid leukemia patient primary cells Pat.8; test: as above
Method: as §1

[14] = test system: myeloid leukemia patient primary cells Pat.9; test: as above
Method: as §1

[15] = test system: myeloid leukemia patient primary cells Pat.5; test: as above
Method: as §1

BV-173 = test: cell viability (% survival relative to DMSO control); higher = less cytotoxic
Method: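 8x8 drug-combination matrices (0–5000 nM; rosiglitazone and lestaurtinib 0–1000 nM) were run in BV-173 cells for 72 h with CellTiter-Glo read-out. Survival is normalised to DMSO and 10 µM bortezomib and clipped at 100%.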

Cc1c2c(=O)n(-c3ccccc3Cl)[nH]c2cc(=O)n1Cc1ccccn1
Conditions	area under dose-response curve
[1]	0.0358
[2]	< 0.0301
[3]	< 0.0301
[4]	< 0.0301
[5]	< 0.0301
[6]	< 0.0301
[7]	< 0.0301
[8]	< 0.0301
[9]	< 0.0301
[10]	< 0.0301
[11]	< 0.0301
[12]	< 0.0301
[13]	< 0.0301
[14]	< 0.0301

O=c1cc(N2CCOCC2)oc2c(-c3ccccc3)cccc12
Conditions	area under dose-response curve
[1]	0.771
[2]	0.0446
[3]	< 0.0301
[4]	0.0372
[5]	0.0381
[6]	0.136
[7]	0.14
[8]	0.0446
[9]	< 0.0301
[10]	0.18
[11]	< 0.0301
[12]	< 0.0301
[14]	0.736
[15]	0.782

O=C1C(SCCO)=C(SCCO)C(=O)c2ccccc21
Conditions	area under dose-response curve
[2]	0.355
[3]	0.385
[4]	0.147
[5]	0.421
[6]	0.444
[7]	0.378
[8]	0.234
[9]	0.33
[10]	0.354
[11]	0.187
[12]	0.45
[13]	0.174
[14]	0.455
[15]	0.455

Cn1cc(-c2ccncc2)c(-c2ccc(OCc3ccc4ccccc4n3)cc2)n1
Conditions	area under dose-response curve
[1]	0.163
[2]	< 0.0301
[3]	< 0.0301
[4]	0.067
[5]	0.183
[6]	< 0.0301
[7]	< 0.0301
[8]	< 0.0301
[9]	0.219
[10]	< 0.0301
[12]	0.309
[13]	< 0.0301
[14]	0.694
[15]	0.938

O=C(O)CC[N+](=O)[O-] [3-nitropropionic acid]
Conditions	area under dose-response curve
[1]	0.0892
[2]	< 0.0301
[3]	0.0457
[4]	0.0548
[5]	0.112
[6]	0.123
[7]	0.0529
[9]	0.133
[10]	0.113
[11]	0.0437
[12]	0.058
[13]	< 0.0301
[14]	0.148
[15]	0.168

O=C(O)CC[N+](=O)[O-] [3-nitropropionic acid] + CCn1c(=Cc2cccc[n+]2CC)sc(=C2Sc3ccccc3N2C)c1=O [MKT 077]
cell viability [%], BV-173
Conditions	drug1 concentration 5 nM	drug1 concentration 10 nM	drug1 concentration 50 nM	drug1 concentration 100 nM	drug1 concentration 500 nM	drug1 concentration 1000 nM	drug1 concentration 5000 nM
drug2 concentration 5 nM	83.1	78.6	88.7	> 100	> 100	83.5	59.7
drug2 concentration 10 nM	97.8	> 100	> 100	94.6	72.9	92.9	> 100
drug2 concentration 50 nM	93.3	> 100	> 100	> 100	> 100	99.5	> 100
drug2 concentration 100 nM	78.1	85.8	> 100	94.3	> 100	> 100	87.9
drug2 concentration 500 nM	> 100	84.2	84.2	86.4	> 100	76.6	> 100
drug2 concentration 1000 nM	> 100	> 100	> 100	> 100	89.1	88.9	74.4
drug2 concentration 5000 nM	> 100	72	> 100	> 100	> 100	> 100	> 100

Cc1[nH]nc(C(F)(F)F)c1Cc1sc2c(c1C(=O)N1C[C@](C)(O)CO1)c(=O)n(C)c(=O)n2C(C)C [AZD3965]
Conditions	area under dose-response curve
[1]	0.167
[2]	< 0.0301
[3]	< 0.0301
[4]	< 0.0301
[5]	< 0.0301
[6]	< 0.0301
[7]	< 0.0301
[8]	< 0.0301
[9]	< 0.0301
[10]	< 0.0301
[11]	< 0.0301
[12]	< 0.0301
[13]	< 0.0301
[14]	< 0.0301
[15]	0.149

O=C(/C=C/c1ccc(O)c(O)c1)OCCc1ccccc1 [Caffeic acid phenethyl ester]
Conditions	area under dose-response curve
[1]	0.539
[2]	0.14
[3]	0.201
[4]	0.082
[5]	0.242
[6]	0.145
[7]	0.155
[9]	0.467
[10]	0.328
[11]	0.168
[12]	0.323
[13]	0.297
[14]	0.563
[15]	0.411

CCN(CC)C(=S)SSC(=S)N(CC)CC [Disulfiram]
Conditions	area under dose-response curve
[2]	0.374
[3]	0.485
[4]	0.412
[5]	0.19
[6]	0.623
[7]	0.398
[8]	0.512
[9]	0.164
[10]	0.373
[11]	0.414
[12]	0.153
[13]	0.503
[14]	0.257
[15]	0.303

c1cc(-c2cnn3cc(-c4ccc(OCCN5CCCCC5)cc4)cnc23)ccn1 [Dorsomorphin]
Conditions	area under dose-response curve
[1]	0.342
[2]	0.106
[3]	< 0.0301
[4]	0.195
[5]	< 0.0301
[6]	0.0705
[7]	0.142
[8]	< 0.0301
[9]	0.0457
[10]	0.182
[11]	< 0.0301
[12]	0.0504
[14]	0.488
[15]	0.508

CO[C@H]1C[C@@H]2CC[C@@H](C)[C@@](O)(O2)C(=O)C(=O)N2CCCC[C@H]2C(=O)O[C@H]([C@H](C)C[C@@H]2CC[C@@H](OCCO)[C@H](OC)C2)CC(=O)[C@H](C)/C=C(\C)[C@@H](O)[C@@H](OC)C(=O)[C@H](C)C[C@H](C)/C=C/C=C/C=C/1C [Everolimus]
Conditions	area under dose-response curve
[1]	0.604
[2]	< 0.0301
[3]	< 0.0301
[4]	0.0367
[5]	0.177
[6]	0.625
[7]	0.122
[8]	0.0353
[9]	0.746
[10]	0.413
[11]	0.0682
[12]	0.139
[13]	< 0.0301
[14]	0.319
[15]	0.808

Cc1cc2c(C(C)C)c(O)c(O)c(C=O)c2c(O)c1-c1c(C)cc2c(C(C)C)c(O)c(O)c(C=O)c2c1O [Gossypol]
Conditions	area under dose-response curve
[1]	0.641
[2]	0.135
[3]	0.0353
[4]	0.107
[5]	0.386
[6]	0.0654
[7]	0.135
[8]	0.112
[9]	0.428
[10]	0.117
[11]	0.0898
[12]	0.476
[13]	0.123
[14]	0.803
[15]	0.712

CCn1c(=Cc2cccc[n+]2CC)sc(=C2Sc3ccccc3N2C)c1=O [MKT 077] + CN(C)CCNC(=O)c1cccn2c(=O)c3cc4ccccc4cc3nc12 [Bmh-21]
cell viability [%], BV-173
Conditions	drug1 concentration 5 nM	drug1 concentration 10 nM	drug1 concentration 50 nM	drug1 concentration 100 nM	drug1 concentration 500 nM	drug1 concentration 1000 nM	drug1 concentration 5000 nM
drug2 concentration 5 nM	90.2	> 100	> 100	> 100	82.7	> 100	93.6
drug2 concentration 10 nM	> 100	> 100	> 100	> 100	> 100	> 100	> 100
drug2 concentration 50 nM	> 100	> 100	86	90.4	86.5	> 100	> 100
drug2 concentration 100 nM	> 100	96.7	94.6	> 100	90.9	> 100	> 100
drug2 concentration 500 nM	4.65	59.5	45.4	34.8	46.4	11.4	49.9
drug2 concentration 1000 nM	0.56	28.5	1.73	66.5	1.33	2.69	6.83
drug2 concentration 5000 nM	0.22	1.2	-0.65	0.37	-0.07	0.15	6.67
